Experimental data: patent US12480155B2, “Nicking enzymes” (LumiraDx UK Ltd., priority 2019, dated 2025)
Like-named read-outs stand apart in the source and are kept apart here.

Experiments:
[1] = tested on: STAR reaction (Nt.BstNBI nicking endonuclease, Bst X DNA polymerase; Chlamydia trachomatis cryptic plasmid target)
Procedure: The STAR mixture contained two primers, polymerase, and nicking enzyme (referenced above). Reactions were performed in a final volume of 25 μl, including 1.0 μM of the forward primer, 0.5 μM of the reverse primer, 0.25 μM molecular beacon, 10 μl STAR Master Mix and 5 μl DNA sample. STAR master mix contained the following reagents; 12 mM MgSO4, 90 mM Tris-HCl (pH 8.5), 300 μM each dNTPs, 20 mM (NH4)2SO4, 15 mM Na2SO4, 2 mM. DTT, 0.01% Triton X-100, 15 U nicking endonuclease, 60 U polymerase. […] The temperature of the reactions was controlled, with a relatively high initiation temperature followed by a gradual drop over time, for optimal STAR activity. The initiation phase, primarily involving polymerase activity, was at the elevated temperature of 60° C. for 15 seconds. […] Amplification and STAR product detection were performed with the Agilent Mx3005P qPCR apparatus (Agilent).

[2] = tested on: Nb.BbvCI nicking endonuclease; test: Nicking Enzyme Activity Assay (NAA) with Nb.BbvCI under isothermal condition; type: biochemical; details: 40 ml RbCl (so in the source), 1x CutSmart Buffer, isothermal 50 °C; four replicates vs control
Procedure: The assay comprises use of the following oligonucleotide probe (DLPFQ) (SEQ ID NO: 10 5′/56-FAM/[…].[…]/3BHQ_1/-3′). The oligonucleotide forms a molecular beacon-like probe in solution. […] Upstream of the nicking enzyme binding site is a 5′ fluorophore.
The reactions are run using an isothermal temperature profile, 50° C. […] Each reaction assessed kinetics, enzyme performance, and signal fluorescence.

[3] = tested on: isothermal amplification reaction (nicking endonuclease, polymerase; primers of Example 1)
Procedure: The basic mixture contains two primers, polymerase, and nicking enzyme (referenced above). […] The reactions were performed in a final volume of 25 μM, including 1.0 μM of the forward primer, 0.5 μM of the reverse primer, 0.25 μM molecular beacon, 10 μM Master Mix and 5 μl DNA sample. The master mix contained the following reagents; 12.5 mM MgSO4, 90 mM Tris-HCl (pH 8.5), 300 μM each dNTPs, 40 mM NH4OAc, 15 mM Na2SO4, 2 mM DTT, 0.01% Triton X-100, 15U nicking endonuclease, 60 U polymerase. […] Amplification and product detection were performed with the Agilent Mx3005P qPCR apparatus (Agilent).

[4] = tested on: Nt.BstNBI nicking endonuclease; details: 15 mM Rb2SO4 vs no rubidium; STAR temperature profile; six replicates
Procedure: The template oligo has a nicking site for nicking endonuclease activity and downstream a 3′ quencher. The priming oligo has the complementary nicking site sequence and a 5′ fluorophore. When in solution the two form a complex that completes a nicking binding site allowing for the nicking endonuclease to cut. The oligonucleotide quencher 5′ of the nick site, following a nick by a nicking endonuclease, now has a low melting temperature. Because the reaction is performed above this melting temperature, the shortened fragment containing the quencher is released from the complex generating fluorescence.
The basic NAA mixture contained the template oligo (NEQ) with a 3′ modification, and the priming oligo (POF) with a 5′-FAM modification which anneals to the template, and a nicking endonuclease (referenced above). The reactions were performed in a final volume of 25 μl, including 1.3 μM NEQ, 1.6 μM POE, and 1×NAA Master Mix. At a 1× concentration, the NAA master mix contained the following reagents; 12.5 mM MgSO4, 90 mM Tris-HCl (pH 8.5), 15 mM NH4CH3CO2, 15 mM Na2SO4, 5 mM DTT, 0.2 mg/ml BSA, 0.02% Triton X-100, 15 mM Rb2SO4, 10 mM L-Threonine, and 0.008 U/μl nicking endonuclease. […] The NAA was performed with the Agilent Mx3005P qPCR apparatus (Agilent). […] Each reaction assessed amplification kinetics, enzyme performance, and signal fluorescence.

Bst X DNA polymerase = details: 15 mM Rb2SO4 vs no added rubidium; STAR temperature profile; six replicates
Text: The NEF has a 5′ fluorophore, POQ has a 3′ quenching moiety that absorbs the photons released by the 5′ template oligo fluorophore. The PO serves as the initiation site for a strand displacement polymerase to extend and displace the quenching oligo allowing for fluorescence to be generated due to the quenching oligo no longer being in proximity to the template oligo.
The basic PAA mixture contains a template oligo (NEF) with a 5′-FAM modification, a priming oligo (PO) which anneals to the template's 3-end, a quenching oligo (POQ) with a 3′-BHQ1 modification which anneals to the template's 5′-end, and a polymerase (referenced above). The reactions were performed in a final volume of 25 μl, including 0.2 μM NEF, 0.3 μM PO, 0.7 μM POQ, and 1×PAA Master Mix. At a 1× concentration, the PAA master mix contained the following reagents; 12.5 mM MgSO4, 90 mM Tris-HCl (pH 8.5), 300 μM each dNTPs, 15 mM NH4CH3CO2, 15 mM Na2SO4, 5 mM DTT, 0.2 mg/ml BSA, 0.02% Triton X-100, 15 mM Rb2SO4, 10 mM L-Threonine, and 0.03 U/μl polymerase. […] The PAA was performed with the Agilent Mx3005P qPCR apparatus (Agilent). […] Each reaction assessed amplification kinetics, enzyme performance, and signal fluorescence.

[5] = tested on: Nb.BsmI nicking endonuclease; details: 20 mM Rb2SO4 vs control; STAR temperature profile; average of six replicates
Text: The modified NAA was run with and without rubidium using the following conditions.
The Nb.BsmI recognition sequence is GAATG_CN. (The underscore indicates the nick site). The oligonucleotide contains self-complementary sequences and forms a molecular beacon-like probe in solution. The probe has a nicking site for nicking endonuclease activity and a 3′ quencher. Upstream of the nicking binding site is a 5′ fluorophore. When in solution a complex is formed that completes a nicking binding site allowing for the nicking endonuclease to nick. Nb.BsmI is a bottom cutter and therefore will cut on the opposite strand of the nicking binding site. The oligonucleotide quencher 3′ of the nick site, following a nick by a nicking endonuclease, now has a low melting temperature. Because the reaction is performed above this melting temperature, the shortened fragment containing the quencher is released from the complex, generating fluorescence.
The basic NAA mixture contained the probe oligo (DLPFQ) with a 5′-FAM modification and a 3′-BHQ1 modification which folds on itself, and a nicking endonuclease (referenced above). […] The reactions were performed in a final volume of 25 μl, including different concentrations of DLPFQ depending on the nicking enzyme used, and 1×NAA Master Mix. […] Each reaction assessed kinetics, enzyme performance, and signal fluorescence.

Question: With `CC(=O)[O-].[K+]` [potassium acetate] as the compound, how does the “effect on STAR (ion replacement)” value ([1]; salts replaced in buffer, various concentrations) read?
Answer: neither of which improved STAR

Question: For `[Cl-].[Rb+]` [rubidium chloride], which “nicking enzyme activity (fluorescence)” value [2] is on record?
Answer: increases the activity of Nb.BbvCI nicking endonuclease

Question: With `O=S(=O)([O-])[O-].[Rb+].[Rb+]` [rubidium sulfate] as the compound, how does the “performance of 10 copy isothermal reaction” value ([3]; 15 mM of rubidium sulfate (so in the source), compared with 100 copy reaction without rubidium sulfate) read?
Answer: made the 10 copy reaction perform similar to the 100 copy reaction without rubidium sulfate

Question: What about the “effect on isothermal amplification reaction” value ([3]; 20 mM rubidium sulfate vs without, 100 and 10 copies template, average of 4 replicates) of the same compound?
Answer: improves the isothermal reaction

Question: What about the “tightness of replicates in isothermal amplification” value ([3]; with vs without rubidium, data not shown) of the same compound?
Answer: tighter than without rubidium

Question: What about the “grouping of replicate sample results in STAR” value ([1]; 50 mM rubidium sulfate vs control group) of the same compound?
Answer: more tightly grouped than with the control group

Question: What about the “effect on STAR amplification” value ([1]; 50 mM rubidium sulfate vs no rubidium control) of the same compound?
Answer: detrimental to amplification, slowing the reaction

Question: What about the “effect on STAR reactions” value ([1]; 10 to 20 mM rubidium sulphate vs no rubidium control, 100 copies target) of the same compound?
Answer: improved STAR reactions

Question: What about the “nicking enzyme activity (fluorescence)” value [4] of the same compound?
Answer: significantly increased the activity of the nicking enzyme

Question: And the “polymerase activity (fluorescence)” value (Bst X DNA polymerase)?
Answer: does not change the activity of the polymerase in any significant manner

Question: And the “nicking enzyme activity (fluorescence)” value [5]?
Answer: increases the activity of this other nicking endonuclease

Question: `CC(=O)[O-].CC(=O)[O-].CC(=O)[O-].[Sc+3]` [scandium acetate] was tested. Which “effect on STAR (ion replacement)” value ([1]; all concentrations) did it give?
Answer: fully inhibited the reaction

Question: Which “effect on STAR (ion replacement)” value ([1]; 10 mM) does the source give for `CC(=O)[O-].CC(=O)[O-].[Sr+2]` [strontium acetate] here?
Answer: possibly slightly slowed the reaction

Question: What about the “effect on STAR (ion replacement)” value ([1]; 20 and 50 mM) of the same compound?
Answer: fully inhibited the reaction
